{"source": "patent US20180352814A1", "about": "(priority 2015, published 2018)", "format_in_all_cases": "in vivo", "key": {"[1]": {"test_system": "soybean frogeye leaf spot (Cercospora sojina) fungus", "experiment": "Test Example 15: Control Test on Soybean Frogeye Leaf Spot (Cercospora sojina)", "details": "200 ppm foliage spray 5 days after inoculation; soybean cultivar TACHINAGAHA", "text": "(§1) The non-treatment in Test Examples 5 to 20 means that foliage application of a mixture of a preparation containing the present compound and water was not performed.\nControl Test on Soybean Frogeye Leaf Spot (Cercospora sojina)\nEach of plastic pots was filled with soil and soybean (cultivar: TACHINAGAHA) was sowed and grown in a greenhouse for 13 days. Thereafter, an aqueous suspension containing spores of soybean frogeye leaf spot (Cercospora sojina) fungus was sprayed to inoculate the spores. After inoculation, the soybean was at first left to stand in a greenhouse at 23° C. in the daytime under high humidity condition for 4 days, and cultivated in a greenhouse at 23° C. for 1 day. Then, the present compound 11 formulated in accordance with the method mentioned in Formulation Example 6 was mixed with water so as to adjust the concentration to 200 ppm, and the mixture was sprayed over stems and leaves of the soybean so that it sufficiently adhered to the surface of the leaves of the soybean. After spraying, the soybean was air-dried and cultivated in a greenhouse at 24° C. during the day and 20° C. at night for 21 days, and then the area of lesion spots was investigated."}, "[2]": {"test_system": "cucumber powdery mildew fungus (Sphaerotheca fuliginea)", "experiment": "Test Example 20: Control Test on Cucumber Powdery Mildew (Sphaerotheca fuliginea)", "details": "200 ppm foliage spray; cucumber cultivar SAGAMI HANJIRO; inoculated 1 day after spraying", "text": "as §1\nControl Test on Cucumber Powdery Mildew (Sphaerotheca fuliginea)\nEach of plastic pots was filled with soil and cucumber (cultivar; SAGAMI HANJIRO) was sowed and grown in a greenhouse for 12 days. Then, the present compound 41 formulated in accordance with the method mentioned in Formulation Example 6 was mixed with water so as to adjust the concentration to 200 ppm, and the mixture was sprayed over stems and leaves of the cucumber so that it sufficiently adhered to the surface of the leaves of the cucumber. After spraying, the […] was air-dried. After the cucumber was left to stand in a greenhouse at 24° C. during the day and 20° C. at night for 1 day, the spores of the cucumber seedling (cultivar; SAGAMI HANJIRO) infected by cucumber powdery mildew fungus were sprinkling-inoculated. After inoculation, the cucumber was cultivated in a greenhouse at 24° C. during the day and 20° C. at night for 8 days, and then the area of lesion spots was investigated."}, "[3]": {"test_system": "tomato late blight fungus (Phytophthora infestans)", "details": "500 ppm foliage spray; tomato variety PATIO; inoculated 1 day after spraying"}, "[4]": {"test_system": "soybean rust fungus (Phakopsora pachyrhizi)", "experiment": "Test Example 9: Control Test on Soybean Rust (Phakopsora pachyrhizi), spraying after inoculation", "details": "200 ppm foliage spray 3 days after inoculation; soybean cultivar KUROSENGOKU", "text": "as §1\n(§2) Control Test on Soybean Rust (Phakopsora pachyrhizi)\nEach of plastic pots was filled with soil and soybean (cultivar: KUROSENGOKU) was sowed and grown in a greenhouse for 10 days. Thereafter, an aqueous suspension containing spores of soybean rust fungus was sprayed to inoculate the spores. After inoculation, the soybean was at first left to stand in a greenhouse at 23° C. in the daytime and 20° C. at night under high humidity condition for 1 day and cultivated in a greenhouse at room temperature for 2 days. Then, the present compound 1 to 9, 11 to 23, 26 to 33, 35 to 41, or 44 formulated in accordance with the method mentioned in Formulation Example 6 was mixed with water so as to adjust the concentration to 200 ppm, and the mixture was sprayed over stems and leaves of the soybean so that it sufficiently adhered to the surface of the leaves of the soybean. After spraying, the soybean was air-dried and cultivated in a greenhouse for 8 days, and then the area of lesion spots was investigated."}, "[5]": {"test_system": "soybean rust fungus (Phakopsora pachyrhizi)", "experiment": "Test Example 10: Control Test on Soybean Rust (Phakopsora pachyrhizi), spraying before inoculation", "details": "200 ppm foliage spray; soybean cultivar KUROSENGOKU; inoculated 4 days after spraying", "text": "as §1, §2\nEach of plastic pots was filled with soil and soybean (cultivar: KUROSENGOKU) was sowed and grown in a greenhouse for 13 days. Then, the present compound 1 to 9, 11 to 21, 29 to 37, or 44 formulated in accordance with the method mentioned in Formulation Example 6 was mixed with water so as to adjust the concentration to 200 ppm, and the mixture was sprayed over stems and leaves so that it sufficiently adhered to the surface of the leaves of the soybean. After spraying, the soybean was air-dried. After 4 days, an aqueous suspension containing spores of soybean rust fungus was sprayed to inoculate the spores. After inoculation, the soybean was at first left to stand in a greenhouse at 23° C. in the daytime and 20° C. at night under high humidity condition for 1 day, and then cultivated in a greenhouse for 10 days, and the area of lesion spots was investigated. As a result, the area of lesion spots on the soybean treated with the present compound 1 to 9, 11 to 21, 29 to 37, or 44 was 30% or less of that on a non-treated soybean."}}, "data": [{"smiles": "COCCN(C)C(=O)Oc1ccc(-c2noc(C(F)(F)F)n2)cc1F", "note": "[compound 11]", "values": [{"measurement": "area of lesion spots on the treated soybean relative to that on a non-treated soybean", "setting": "[1]", "value": "≤ 30", "unit": "%"}]}, {"smiles": "CC1(C(=O)Nc2ccc(-c3noc(C(F)(F)F)n3)cc2)CC1", "note": "[compound 41]", "values": [{"measurement": "area of lesion spots on the treated cucumber relative to that on a non-treated cucumber", "setting": "[2]", "value": "≤ 30", "unit": "%"}]}, {"smiles": "CCOCCNC(=O)Oc1ccc(-c2noc(C(F)(F)F)n2)cc1", "note": "[compound 9]", "values": [{"measurement": "area of lesion spots on the treated tomato relative to that on a non-treated tomato", "setting": "[3]", "value": "≤ 30", "unit": "%"}]}, {"smiles": "O=C(Oc1ccc(-c2noc(C(F)(F)F)n2)cc1)C1CCCCC1", "note": "[compound 44]", "values": [{"measurement": "area of lesion spots on the treated soybean relative to that on a non-treated soybean", "setting": "[4]", "value": "≤ 30", "unit": "%"}, {"measurement": "area of lesion spots on the treated soybean relative to that on a non-treated soybean", "setting": "[5]", "value": "≤ 30", "unit": "%"}]}]}
